Measurements reported in US20090143279A1 (priority 2007, published 2009).
Read-outs that look alike come from different tables or passages of the source.

Columns and labels:
[1] = system: reactive oxygen species; format: cell-based, mouse
[2] = system: mtOXPHOS transcripts; format: cell-based, mouse
[3] = system: nuOXPHOS transcripts; format: cell-based, mouse
[4] = system: cellular dehydrogenase activity
[5] = system: cytochrome c; format: cell-based, mouse
[6] = system: mitochondrial membrane potential; format: cell-based, mouse
[7] = system: C2C12 myotubes
[8] = system: OXPHOS gene expression; format: cell-based, mouse
[9] = composite Z-score vs DMSO, Conc 20 μM
[10] = 20 μM, composite Z-score vs DMSO
[11] = composite Z-score vs DMSO wells, Conc 20 μM
[12] = composite Z-score vs mock-treated (DMSO) wells, Conc 20 μM
[13] = normalized composite Z-score vs mock-treated (DMSO) wells, Conc 20 μM
[14] = composite Z-score vs DMSO, Conc 10.24 μM
[15] = 18.76 μM, composite Z-score vs DMSO
[16] = 13.16 μM, composite Z-score vs DMSO

C[C@@H]1O[C@@H](O[C@H]2C[C@@H](O)[C@]3(CO)[C@H]4[C@H](O)C[C@]5(C)[C@@H](C6=CC(=O)OC6)CC[C@]5(O)[C@@H]4CC[C@]3(O)C2)[C@H](O)[C@H](O)[C@H]1O [ouabain]
ROS [1, 9]: 0.466 | mitoOX [2, 9]: −1.547 | nucOX [3, 9]: −0.986 | MTT [4, 9]: −2.101 | cyt c [5, 9]: 0.262 | ΔΨm [6, 9]: −1.093 | Viability [7, 9]: −0.631 | GE-HTS [8, 9]: −1.278

Cc1onc(-c2ccccc2)c1C(=O)N[C@@H]1C(=O)N2[C@@H]1SC(C)(C)[C@@H]2C(=O)[O-].[Na+] [oxacillin sodium]
ROS [1, 9]: 0.572 | mitoOX [2, 9]: −0.881 | nucOX [3, 9]: −0.629 | MTT [4, 9]: −1.064 | cyt c [5, 9]: −0.361 | ΔΨm [6, 9]: −0.432 | Viability [7, 9]: −1.101 | GE-HTS [8, 9]: −0.790

CN(C(=O)CN(CCO)CC(=O)N(C)C(C)(C)Cc1ccccc1)C(C)(C)Cc1ccccc1 [oxethazaine]
ROS [1]: 1.092 | ROS [1, 10]: −0.055 | mitoOX [2]: 0.609 | mitoOX [2, 10]: −0.486 | nucOX [3]: 0.335 | nucOX [3, 10]: −0.812 | MTT [4]: −1.374 | MTT [4, 10]: −1.451 | cyt c [5]: −0.550 | cyt c [5, 10]: −0.278 | ΔΨm [6]: −0.742 | ΔΨm [6, 10]: 0.173 | Viability [7]: −0.497 | Viability [7, 10]: −0.294 | GE-HTS [8]: 0.473 | GE-HTS [8, 10]: −0.739

CCn1cc(C(=O)O)c(=O)c2cc3c(cc21)OCO3 [oxolinic acid]
ROS [1, 11]: 0.681 | mitoOX [2, 11]: 0.171 | nucOX [3, 11]: 0.211 | MTT [4, 11]: −1.598 | cyt c [5]: 0.227 | cyt c [5, 11]: 0.083 | ΔΨm [6, 11]: −0.640 | Viability [7, 11]: −0.913 | GE-HTS [8, 11]: 0.217

COC[C@]12CN(C=O)[C@@H]3[C@@H]4[C@H](OC)[C@H]1[C@@]3([C@@H](OC)C[C@H]2O)[C@@H]1C[C@@]2(O)[C@H](OC(=O)c3ccccc3)[C@@H]1[C@]4(OC(C)=O)[C@@H](O)[C@@H]2OC [oxonitine]
ROS [1, 12]: −0.167 | mitoOX [2, 12]: 0.147 | nucOX [3, 12]: −0.938 | MTT [4, 12]: −1.730 | cyt c [5, 12]: 0.394 | ΔΨm [6, 12]: −1.019 | Viability [7, 12]: −1.338 | GE-HTS [8, 12]: −0.636

Oc1cccc2cccnc12 [oxyquinoline]
ROS [1]: 0.684 | mitoOX [2]: 0.435 | nucOX [3]: 0.526 | MTT [4]: −0.815 | cyt c [5]: −0.121 | ΔΨm [6]: −0.867 | Viability [7]: −1.140 | GE-HTS [8]: 0.534

NNC(=O)c1ccncc1.Nc1ccc(C(=O)O)c(O)c1 [pasiniazid]
ROS [1, 9]: 0.502 | mitoOX [2, 9]: −0.164 | nucOX [3, 9]: −0.022 | MTT [4, 9]: −0.807 | cyt c [5, 9]: 0.590 | ΔΨm [6, 9]: −0.809 | Viability [7, 9]: −0.883 | GE-HTS [8, 9]: −0.059

COc1ccc(-c2cc(=O)c3c(O)c(OC)c(O[C@@H]4O[C@H](CO[C@@H]5O[C@@H](C)[C@H](O)[C@@H](O)[C@H]5O)[C@@H](O)[C@H](O)[C@H]4O)cc3o2)cc1 [pectolinarin]
ROS [1, 13]: 1.058 | mitoOX [2, 13]: −1.349 | nucOX [3, 13]: −1.292 | MTT [4, 13]: −0.475 | cyt c [5, 13]: −0.739 | ΔΨm [6, 13]: −0.280 | Viability [7, 13]: −0.100 | GE-HTS [8, 13]: −1.381

CC(=O)C[C@H]1CCCCN1 [pelletierine]
ROS [1, 13]: −0.071 | mitoOX [2, 13]: −0.077 | nucOX [3, 13]: 0.077 | MTT [4, 13]: −0.341 | cyt c [5, 13]: 0.349 | ΔΨm [6, 13]: −0.120 | Viability [7, 13]: −0.418 | GE-HTS [8, 13]: 0.036

CN1C(C)(C)CCCC1(C)C [pempidine]
ROS [1]: 1.119 | ROS [1, 9]: 0.861 | mitoOX [2]: −0.998 | mitoOX [2, 9]: −0.378 | nucOX [3]: −0.425 | nucOX [3, 9]: −1.035 | MTT [4]: −2.128 | MTT [4, 9]: −1.419 | cyt c [5]: 0.163 | cyt c [5, 9]: 0.146 | ΔΨm [6]: −0.967 | ΔΨm [6, 9]: −0.376 | Viability [7]: −1.023 | Viability [7, 9]: −0.822 | GE-HTS [8]: −0.656 | GE-HTS [8, 9]: −0.874

CC1(C)S[C@@H]2[C@H](NC(=O)COc3ccccc3)C(=O)N2[C@H]1C(=O)O [penicillin V]
ROS [1, 10]: 0.748 | mitoOX [2, 10]: −0.654 | nucOX [3, 10]: −0.844 | MTT [4, 10]: −1.319 | cyt c [5, 10]: 0.258 | ΔΨm [6, 10]: −0.564 | Viability [7, 10]: 0.062 | GE-HTS [8, 10]: −0.849

C[N+]1(CCCCC[N+]2(C)CCCC2)CCCC1 [pentolinium]
ROS [1, 14]: 3.608 | ROS [1, 9]: 0.392 | mitoOX [2, 14]: 0.444 | mitoOX [2, 9]: −1.080 | nucOX [3, 14]: 0.489 | nucOX [3, 9]: −0.840 | MTT [4, 14]: 0.254 | MTT [4, 9]: −0.771 | cyt c [5, 14]: 0.387 | cyt c [5, 9]: −0.703 | ΔΨm [6, 14]: −0.024 | ΔΨm [6, 9]: 0.209 | Viability [7, 14]: 0.213 | Viability [7, 9]: −0.568 | GE-HTS [8, 14]: 0.521 | GE-HTS [8, 9]: −1.000

CO[C@H]1[C@H](O)[C@H](O[C@H]2CC[C@@]3(C=O)[C@H](CC[C@@H]4[C@@H]3CC[C@]3(C)[C@@H](C5=CC(=O)OC5)CC[C@]43O)C2)O[C@@H](C)[C@@H]1O [peruvoside]
ROS [1, 11]: 0.997 | mitoOX [2, 11]: 0.324 | nucOX [3, 11]: 0.297 | MTT [4, 11]: −1.190 | cyt c [5, 11]: 0.075 | ΔΨm [6, 11]: −0.906 | Viability [7, 11]: 0.426 | GE-HTS [8, 11]: 0.328

CC(C)=CCc1c(O)cc2oc(C)cc(=O)c2c1O [peucenin]
ROS [1, 12]: −0.014 | mitoOX [2, 12]: 0.361 | nucOX [3, 12]: 0.051 | MTT [4, 12]: −1.695 | cyt c [5, 12]: 0.494 | ΔΨm [6, 12]: −0.057 | Viability [7, 12]: −0.906 | GE-HTS [8, 12]: 0.148

CCOc1ccc(NC(C)=O)cc1 [phenacetin]
ROS [1, 11]: 1.491 | mitoOX [2, 11]: 0.564 | nucOX [3, 11]: 0.833 | MTT [4, 11]: 0.760 | cyt c [5]: −0.611 | cyt c [5, 11]: 0.005 | ΔΨm [6, 11]: −0.255 | Viability [7, 11]: 0.665 | GE-HTS [8, 11]: 0.811

Nc1ccc(/N=N/c2ccccc2)c(N)n1 [phenazopyridine]
ROS [1, 15]: 0.587 | ROS [1, 10]: 1.911 | mitoOX [2, 15]: −0.930 | mitoOX [2, 10]: 0.544 | nucOX [3, 15]: −0.323 | nucOX [3, 10]: 0.207 | MTT [4, 15]: −2.094 | MTT [4, 10]: −0.692 | cyt c [5, 15]: 0.678 | cyt c [5, 10]: 0.335 | ΔΨm [6, 15]: 0.126 | ΔΨm [6, 10]: 1.263 | Viability [7, 15]: −0.413 | Viability [7, 10]: 0.627 | GE-HTS [8, 15]: −0.561 | GE-HTS [8, 10]: 0.362

CC(COc1ccccc1)N(CCCl)Cc1ccccc1 (stereo not shown) [phenoxybenzamine]
ROS [1, 16]: 0.444 | ROS [1, 10]: 0.256 | mitoOX [2, 16]: 0.167 | mitoOX [2, 10]: −1.462 | nucOX [3, 16]: −0.306 | nucOX [3, 10]: −1.077 | MTT [4, 16]: −0.159 | MTT [4, 10]: −1.049 | cyt c [5, 16]: −0.470 | cyt c [5, 10]: −0.188 | ΔΨm [6, 16]: −0.422 | ΔΨm [6, 10]: 0.021 | Viability [7, 16]: −0.751 | Viability [7, 10]: −0.906 | GE-HTS [8, 16]: −0.155 | GE-HTS [8, 10]: −1.302
